For experiment [1], the target named is Glyceraldehyde-3-phosphate dehydrogenase (Homo sapiens, UniProt P04406).
Experiment [2] addresses Alkaline phosphatase, placental type (Homo sapiens, UniProt P05187). The experiment is described as follows: human placental alkaline phosphatase inhibition – biochemical, luminescence, confirmation (AID 1512). It counts as functional.
Experiment [3] addresses T1, Alkaline phosphatase, tissue-nonspecific isozyme (Homo sapiens, UniProt P05186).
T1 sequence (P05186 whole entry): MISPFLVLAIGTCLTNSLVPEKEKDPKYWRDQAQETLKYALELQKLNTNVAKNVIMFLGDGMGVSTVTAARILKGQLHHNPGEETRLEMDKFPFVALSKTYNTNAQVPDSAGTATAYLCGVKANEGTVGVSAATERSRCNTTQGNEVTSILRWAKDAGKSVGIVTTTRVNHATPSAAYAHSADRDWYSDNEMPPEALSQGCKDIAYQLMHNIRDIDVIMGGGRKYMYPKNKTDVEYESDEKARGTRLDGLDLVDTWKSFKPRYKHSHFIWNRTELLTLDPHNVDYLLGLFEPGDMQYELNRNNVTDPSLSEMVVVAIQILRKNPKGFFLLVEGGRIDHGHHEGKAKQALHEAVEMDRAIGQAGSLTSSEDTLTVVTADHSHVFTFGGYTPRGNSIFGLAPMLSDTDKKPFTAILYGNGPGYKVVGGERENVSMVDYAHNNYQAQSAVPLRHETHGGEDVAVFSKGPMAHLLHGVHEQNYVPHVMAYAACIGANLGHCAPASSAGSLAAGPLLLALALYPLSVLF
The experiment is described as follows: potency against alkaline phosphatase TNAP – biochemical, luminescent, dose response, SAR follow-up (AID 1056).

The target of experiment [4] is Eukaryotic translation initiation factor 4H (Homo sapiens, UniProt Q15056). Kind of experiment: inhibitors of translation initiation factor eIF4H – SAR follow-up (AID 435011). It counts as functional.
For experiment [5], the target named is T2, Polyadenylate-binding protein 1 (Homo sapiens, UniProt P11940). Kind of experiment: PABP inhibition in translation initiation, SAR follow-up (AID 435018). The format is functional.
T2 sequence (P11940 whole entry): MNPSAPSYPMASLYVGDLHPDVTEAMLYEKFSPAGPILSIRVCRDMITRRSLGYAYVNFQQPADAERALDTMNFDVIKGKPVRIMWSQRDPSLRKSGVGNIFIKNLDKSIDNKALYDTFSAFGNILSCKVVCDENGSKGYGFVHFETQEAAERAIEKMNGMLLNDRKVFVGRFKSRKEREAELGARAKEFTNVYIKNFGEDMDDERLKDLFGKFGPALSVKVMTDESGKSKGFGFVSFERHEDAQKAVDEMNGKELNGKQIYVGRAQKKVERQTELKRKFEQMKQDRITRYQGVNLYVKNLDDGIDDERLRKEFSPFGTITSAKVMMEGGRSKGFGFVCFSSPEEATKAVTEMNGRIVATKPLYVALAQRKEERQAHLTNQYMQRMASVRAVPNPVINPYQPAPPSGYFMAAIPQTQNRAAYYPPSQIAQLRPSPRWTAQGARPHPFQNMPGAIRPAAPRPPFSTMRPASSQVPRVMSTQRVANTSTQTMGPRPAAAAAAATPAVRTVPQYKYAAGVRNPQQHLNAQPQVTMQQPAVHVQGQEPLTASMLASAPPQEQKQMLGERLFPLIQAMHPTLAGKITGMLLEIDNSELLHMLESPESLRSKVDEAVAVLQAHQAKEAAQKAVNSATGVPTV
Another experiment addresses T3, Hexokinase HKDC1 (Homo sapiens, UniProt Q2TB90).
T3 sequence (Q2TB90 whole entry): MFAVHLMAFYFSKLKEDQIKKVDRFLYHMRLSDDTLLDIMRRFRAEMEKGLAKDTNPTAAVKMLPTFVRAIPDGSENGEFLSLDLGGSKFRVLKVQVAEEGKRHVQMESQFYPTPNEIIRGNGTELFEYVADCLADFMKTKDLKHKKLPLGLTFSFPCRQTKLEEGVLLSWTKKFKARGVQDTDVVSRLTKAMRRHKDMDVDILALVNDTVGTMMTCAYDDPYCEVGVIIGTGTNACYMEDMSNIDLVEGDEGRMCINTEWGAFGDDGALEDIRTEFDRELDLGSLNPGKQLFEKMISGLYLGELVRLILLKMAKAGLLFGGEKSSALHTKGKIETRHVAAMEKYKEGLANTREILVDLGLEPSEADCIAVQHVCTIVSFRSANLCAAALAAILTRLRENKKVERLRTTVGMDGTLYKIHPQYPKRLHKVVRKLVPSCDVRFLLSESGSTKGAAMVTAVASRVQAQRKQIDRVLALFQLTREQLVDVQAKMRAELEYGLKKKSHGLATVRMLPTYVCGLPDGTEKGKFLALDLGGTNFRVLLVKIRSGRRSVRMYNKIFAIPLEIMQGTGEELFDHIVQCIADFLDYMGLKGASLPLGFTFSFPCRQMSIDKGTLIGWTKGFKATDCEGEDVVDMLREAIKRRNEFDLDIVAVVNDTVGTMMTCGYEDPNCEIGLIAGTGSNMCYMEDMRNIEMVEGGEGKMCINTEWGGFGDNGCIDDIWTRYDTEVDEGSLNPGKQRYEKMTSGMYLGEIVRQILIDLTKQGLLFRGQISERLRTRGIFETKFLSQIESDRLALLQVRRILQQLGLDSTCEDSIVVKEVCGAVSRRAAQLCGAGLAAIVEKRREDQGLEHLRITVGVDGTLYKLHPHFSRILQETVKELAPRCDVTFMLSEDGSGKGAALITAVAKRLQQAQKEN
Kind of experiment: inhibition of HKDC1 glucose phosphorylation – biochemical, W721R variant, dose response (AID 504729). The format is functional.

For the next experiment, the system named is CHO. Kind of experiment: CHO cell viability loss, potency – luminescence, cytotoxicity control for TLR9-MyD88 binding inhibitor project, dose response (AID 588339).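 Further: CHO cells stably coexpressing TLR9 and MyD88 fusions from primary screen; compound exposure lasted 48 hours before viability readout.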 It counts as functional, cell-based, hamster. The settings on record: Cricetulus griseus.
Experiment [6] has as its target Heat shock protein HSP 90-alpha (Homo sapiens, UniProt P07900). The format is functional, organism-based.
A further experiment concerns Vero. Kind of experiment: viability of Vero cells under compound – cytotoxicity control for flavivirus capping enzyme inhibitors (AID 588742). The format is functional. As to conditions: Chlorocebus sabaeus.
Another experiment addresses Beta Lactamase (Pseudomonas aeruginosa, UniProt Q932Y6). The experiment is described as follows: BLA reporter interference, concentration series – BLA reporter cells, FRET fluorescence, artefact control for TLR9-MyD88 binding inhibitor project, dose response (AID 588341).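 Further: cell based assay in CHO-K1 cells stably expressing beta-lactamase.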 It counts as cell-based.
Another experiment deals with Genome polyprotein (dengue virus type 2, UniProt P29990). Kind of experiment: flavivirus cap methylation enzyme inhibition – biochemical, confirmation dose response, primary screen (AID 588689). It counts as functional.
Experiment [7] addresses T2, Polyadenylate-binding protein 1. Kind of experiment: MLLE binding blockers, Cy5 peptide tracer – biochemical, fluorescence polarization, Cy5-PAM2 peptide, secondary, miRNA deadenylation inhibitor project, dose response (AID 602260). The format is functional. As to conditions: read-out: IC50_Mean. (Polarisation of emitted light reports the rotation of a fluorescent probe.)

Experiment [8] shares this target. The experiment is described as follows: MLLE domain peptide-binding blockers, IC50 – biochemical, fluorescence polarization, FITC-PAM2 peptide, dose response (AID 602259). As to conditions: read-out: IC50_Mean. It counts as functional.
Experiment [9] concerns the target T4, Fatty acid synthase (Homo sapiens, UniProt P49327). The experiment is described as follows: inhibition of human FAS-TE enzyme activity – biochemical, endpoint fluorescence intensity, uHTS hits, dose response (AID 624327).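 Further: fluorescence from hydrolysis of an O-methyl fluorescein acyl ester substrate by the enzyme.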 The format is functional.
Experiment [10] concerns the target T4, Fatty acid synthase. Kind of experiment: inhibition of human FAS-TE enzyme activity – biochemical, kinetic fluorescence intensity, dose response (AID 624326).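 Further: rate of fluorescence rise from hydrolysis of a fluorogenic O-methyl fluorescein ester substrate.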 The format is functional.
In a further experiment the target is Paired box protein Pax-8 (Homo sapiens, UniProt Q06710). Kind of experiment: PAX8 transcriptional activity inhibition in RMG-I – RMG-I cells, luciferase, cherry-pick, dose response (AID 687027).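 Further: luciferase reporter driven by Pax8 target thyroperoxidase promoter measured by SteadyGlo luminescence.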 It counts as functional, cell-based.
Chain of Paired box protein Pax-8 (Q06710 whole entry): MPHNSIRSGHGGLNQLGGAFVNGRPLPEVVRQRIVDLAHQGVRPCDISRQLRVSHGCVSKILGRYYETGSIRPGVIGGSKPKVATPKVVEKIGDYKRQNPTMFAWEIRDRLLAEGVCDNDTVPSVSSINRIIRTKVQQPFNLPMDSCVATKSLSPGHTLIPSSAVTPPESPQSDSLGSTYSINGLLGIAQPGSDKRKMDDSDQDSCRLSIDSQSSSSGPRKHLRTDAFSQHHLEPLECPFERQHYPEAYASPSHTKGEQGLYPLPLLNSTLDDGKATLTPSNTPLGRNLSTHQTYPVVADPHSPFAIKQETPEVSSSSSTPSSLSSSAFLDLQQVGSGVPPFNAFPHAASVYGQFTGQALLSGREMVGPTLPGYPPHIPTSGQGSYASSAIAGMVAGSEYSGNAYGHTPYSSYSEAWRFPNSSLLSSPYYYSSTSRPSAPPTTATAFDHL
Experiment [11] concerns the target T5, Tyrosyl-DNA phosphodiesterase 2 (Homo sapiens, UniProt O95551).
T5 sequence (O95551 whole entry): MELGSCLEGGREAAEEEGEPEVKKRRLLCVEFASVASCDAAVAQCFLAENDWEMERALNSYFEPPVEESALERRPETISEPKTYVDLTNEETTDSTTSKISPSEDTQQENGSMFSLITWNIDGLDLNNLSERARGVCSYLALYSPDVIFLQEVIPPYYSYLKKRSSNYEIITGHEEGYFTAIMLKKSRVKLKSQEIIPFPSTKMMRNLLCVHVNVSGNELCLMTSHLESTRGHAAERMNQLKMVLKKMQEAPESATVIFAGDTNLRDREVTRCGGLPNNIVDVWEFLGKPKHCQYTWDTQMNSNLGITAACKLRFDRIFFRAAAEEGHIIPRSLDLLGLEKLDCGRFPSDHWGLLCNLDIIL
The experiment is described as follows: potency against TDP2 phosphodiesterase activity – biochemical, epi absorbance, IC50, dose response (AID 743297).

Experiment [12] is described as follows: general cell-killing toxicity readout – plate reader, dry powder samples, cytotoxicity control for PAX8 inhibitor project, dose response (AID 743021). The format is functional, cell-based.
Experiment [13] can be described thus: viability loss in THP-1 monocytes – THP-1 cells, cytotoxicity control for Vif-APOBEC3G degradation inhibitor project, dose response (AID 1117359). As to conditions: THP-1. It counts as functional.
Another experiment concerns the target T6, Bcl-2-related protein A1 (Mus musculus, UniProt Q07440).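 Further: confirmatory dose–response counterscreen on Bfl-1, used to check hits from a UBC13 polyubiquitin inhibitor campaign.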
T6 sequence (Q07440 whole entry): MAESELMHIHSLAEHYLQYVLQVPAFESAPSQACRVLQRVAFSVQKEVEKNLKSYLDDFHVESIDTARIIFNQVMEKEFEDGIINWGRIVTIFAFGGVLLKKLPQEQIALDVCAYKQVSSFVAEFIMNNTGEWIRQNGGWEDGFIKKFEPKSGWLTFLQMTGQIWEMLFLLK
The format is functional.

Experiment [14] has as its target T7, Ubiquitin-conjugating enzyme E2 N (Homo sapiens, UniProt P61088).
T7 sequence (P61088 whole entry): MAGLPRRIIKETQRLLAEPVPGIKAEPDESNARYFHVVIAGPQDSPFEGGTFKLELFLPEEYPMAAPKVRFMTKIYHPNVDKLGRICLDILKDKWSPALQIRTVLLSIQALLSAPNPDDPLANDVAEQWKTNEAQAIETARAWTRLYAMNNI
The format is functional.

The target in experiment [15] is T7, Ubiquitin-conjugating enzyme E2 N. It counts as functional. This is another data set of the same source.
The test system of experiment [16] is HEK293. Kind of experiment: inhibition of NOD1-driven NF-kB reporter – cell-based, luminescence, uHTS, primary screen (AID 1578). It counts as functional. The settings on record: Homo sapiens.
Experiment [17] deals with HEK293. The experiment is described as follows: cells. It counts as functional, cell-based. The settings on record: Homo sapiens.
The subject of experiment [18] is HEK293. Kind of experiment: cells. It counts as functional, cell-based. As to conditions: Homo sapiens. The source holds these as a separate data set.
The target in experiment [19] is Nucleotide-binding oligomerization domain-containing protein 2 (Homo sapiens, UniProt Q9HC29). The experiment is described as follows: inhibition of NOD2-driven NF-kB reporter – cell-based, luminescence, uHTS, HEK293 (AID 1566). The format is functional.
Experiment [20] has as its system HEK293. Kind of experiment: NOD2 signaling inhibitors in MDP-stimulated cells, cell-based, uHTS, luminescence (AID 2001). The format is functional. The settings on record: Homo sapiens.
The subject of experiment [21] is HEK293. The experiment is described as follows: cells. As to conditions: Homo sapiens. The format is functional, cell-based. The source holds these as a separate data set.
The target of another experiment is Beta-galactosidase (Escherichia coli, UniProt Q8VNN2). The experiment is described as follows: detection-enzyme interference by beta-gal modulators – biochemical, E. coli enzyme, set 3, artefact control for CCR6 antagonist project, dose response (AID 504712). It counts as functional.

The term AC50 denotes the midpoint of the concentration-response curve, whichever way the signal moves. What is called CC50 is the concentration that lowers cell viability or growth by half. Usually EC50 stands for the concentration needed to bring the measured effect to its halfway point.

Structures are written as SMILES. Activity calls are given as the source filed them. Some results are limits rather than exact numbers.

T4 sequence (P49327 whole entry): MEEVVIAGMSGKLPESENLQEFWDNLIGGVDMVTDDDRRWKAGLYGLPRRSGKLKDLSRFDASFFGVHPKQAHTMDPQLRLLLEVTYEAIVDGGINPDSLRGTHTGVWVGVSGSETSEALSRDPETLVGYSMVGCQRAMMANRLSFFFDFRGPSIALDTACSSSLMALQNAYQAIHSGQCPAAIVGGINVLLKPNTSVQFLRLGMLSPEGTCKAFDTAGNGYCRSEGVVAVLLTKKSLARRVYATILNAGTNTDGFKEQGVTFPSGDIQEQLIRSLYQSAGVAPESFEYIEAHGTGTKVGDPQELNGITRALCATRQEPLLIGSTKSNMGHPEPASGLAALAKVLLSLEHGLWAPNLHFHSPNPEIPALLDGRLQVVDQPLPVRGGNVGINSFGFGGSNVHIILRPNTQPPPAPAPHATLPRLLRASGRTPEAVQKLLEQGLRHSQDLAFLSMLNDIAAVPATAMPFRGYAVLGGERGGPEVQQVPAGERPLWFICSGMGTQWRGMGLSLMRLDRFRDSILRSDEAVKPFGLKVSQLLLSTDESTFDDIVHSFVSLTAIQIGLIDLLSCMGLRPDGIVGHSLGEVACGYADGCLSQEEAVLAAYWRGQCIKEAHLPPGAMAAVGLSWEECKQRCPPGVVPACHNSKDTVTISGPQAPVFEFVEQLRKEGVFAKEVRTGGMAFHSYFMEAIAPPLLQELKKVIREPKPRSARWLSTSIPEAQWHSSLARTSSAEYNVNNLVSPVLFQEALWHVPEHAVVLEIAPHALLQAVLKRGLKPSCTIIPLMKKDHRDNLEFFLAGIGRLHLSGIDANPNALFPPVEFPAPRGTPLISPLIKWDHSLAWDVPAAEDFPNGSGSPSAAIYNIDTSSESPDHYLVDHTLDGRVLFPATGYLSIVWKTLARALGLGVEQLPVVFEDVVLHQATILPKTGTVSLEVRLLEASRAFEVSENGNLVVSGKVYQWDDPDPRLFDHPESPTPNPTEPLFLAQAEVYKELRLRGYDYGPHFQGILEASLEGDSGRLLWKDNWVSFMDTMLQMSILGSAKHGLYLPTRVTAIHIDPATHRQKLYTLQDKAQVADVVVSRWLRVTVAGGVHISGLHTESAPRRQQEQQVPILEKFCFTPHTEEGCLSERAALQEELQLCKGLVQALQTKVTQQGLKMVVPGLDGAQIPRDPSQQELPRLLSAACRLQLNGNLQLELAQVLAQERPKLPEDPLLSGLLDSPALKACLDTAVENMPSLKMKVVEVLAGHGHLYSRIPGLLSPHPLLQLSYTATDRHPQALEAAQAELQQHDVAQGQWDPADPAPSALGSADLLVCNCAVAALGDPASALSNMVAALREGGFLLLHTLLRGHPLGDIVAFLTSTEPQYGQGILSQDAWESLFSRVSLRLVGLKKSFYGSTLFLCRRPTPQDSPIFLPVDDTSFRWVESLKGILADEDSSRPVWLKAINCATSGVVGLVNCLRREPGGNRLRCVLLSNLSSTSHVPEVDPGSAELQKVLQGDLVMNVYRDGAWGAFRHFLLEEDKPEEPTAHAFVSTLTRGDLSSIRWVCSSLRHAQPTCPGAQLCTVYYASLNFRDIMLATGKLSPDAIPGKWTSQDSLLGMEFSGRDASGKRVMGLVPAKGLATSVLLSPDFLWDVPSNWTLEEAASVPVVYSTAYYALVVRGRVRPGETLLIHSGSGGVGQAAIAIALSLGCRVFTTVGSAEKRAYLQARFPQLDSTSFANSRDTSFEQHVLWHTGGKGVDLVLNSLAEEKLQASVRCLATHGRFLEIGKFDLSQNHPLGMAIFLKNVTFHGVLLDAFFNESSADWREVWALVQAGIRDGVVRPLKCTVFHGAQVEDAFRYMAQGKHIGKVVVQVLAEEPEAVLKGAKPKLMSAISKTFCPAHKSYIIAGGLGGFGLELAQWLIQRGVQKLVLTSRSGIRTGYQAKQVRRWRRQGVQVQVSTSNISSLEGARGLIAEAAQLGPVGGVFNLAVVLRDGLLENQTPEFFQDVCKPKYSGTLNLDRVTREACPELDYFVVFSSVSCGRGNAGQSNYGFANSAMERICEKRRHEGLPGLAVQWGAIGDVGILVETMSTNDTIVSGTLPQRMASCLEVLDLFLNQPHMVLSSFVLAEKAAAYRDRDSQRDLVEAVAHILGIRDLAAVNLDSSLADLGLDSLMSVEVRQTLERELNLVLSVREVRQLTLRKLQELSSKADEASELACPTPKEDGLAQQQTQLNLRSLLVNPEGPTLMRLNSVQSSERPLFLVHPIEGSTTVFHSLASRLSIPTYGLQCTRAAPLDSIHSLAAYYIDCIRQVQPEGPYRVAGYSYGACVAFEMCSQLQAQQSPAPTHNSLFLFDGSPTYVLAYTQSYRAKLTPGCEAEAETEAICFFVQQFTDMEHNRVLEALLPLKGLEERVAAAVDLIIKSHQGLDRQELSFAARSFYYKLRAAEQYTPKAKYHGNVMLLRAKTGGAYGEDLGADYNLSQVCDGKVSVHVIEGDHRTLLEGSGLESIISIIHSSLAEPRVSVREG
Chain of Alkaline phosphatase, placental type (P05187 whole entry): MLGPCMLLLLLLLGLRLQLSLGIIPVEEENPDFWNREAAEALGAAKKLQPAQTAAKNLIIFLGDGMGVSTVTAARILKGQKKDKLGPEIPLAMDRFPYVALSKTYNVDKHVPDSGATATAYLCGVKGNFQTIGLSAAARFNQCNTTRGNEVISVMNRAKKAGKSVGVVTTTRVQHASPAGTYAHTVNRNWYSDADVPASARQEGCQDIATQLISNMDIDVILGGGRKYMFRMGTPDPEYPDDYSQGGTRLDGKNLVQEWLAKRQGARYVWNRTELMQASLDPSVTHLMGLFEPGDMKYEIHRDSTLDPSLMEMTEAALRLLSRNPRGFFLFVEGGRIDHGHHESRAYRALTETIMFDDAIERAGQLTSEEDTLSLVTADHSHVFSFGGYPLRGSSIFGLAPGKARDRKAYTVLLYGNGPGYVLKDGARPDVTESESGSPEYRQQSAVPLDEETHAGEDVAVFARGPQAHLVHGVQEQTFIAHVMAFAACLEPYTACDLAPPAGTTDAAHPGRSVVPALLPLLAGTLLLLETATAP
Chain of Glyceraldehyde-3-phosphate dehydrogenase (P04406 whole entry): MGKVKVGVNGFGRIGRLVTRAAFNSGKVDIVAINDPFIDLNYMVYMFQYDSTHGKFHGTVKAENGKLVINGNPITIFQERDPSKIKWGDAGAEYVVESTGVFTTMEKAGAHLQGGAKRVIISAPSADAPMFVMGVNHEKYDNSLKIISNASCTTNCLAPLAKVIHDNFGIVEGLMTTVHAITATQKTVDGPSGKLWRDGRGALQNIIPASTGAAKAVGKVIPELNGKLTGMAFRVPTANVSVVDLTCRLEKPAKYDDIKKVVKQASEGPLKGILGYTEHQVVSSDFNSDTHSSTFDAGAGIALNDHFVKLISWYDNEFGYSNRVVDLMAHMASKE
Chain of Beta Lactamase (Q932Y6 whole entry): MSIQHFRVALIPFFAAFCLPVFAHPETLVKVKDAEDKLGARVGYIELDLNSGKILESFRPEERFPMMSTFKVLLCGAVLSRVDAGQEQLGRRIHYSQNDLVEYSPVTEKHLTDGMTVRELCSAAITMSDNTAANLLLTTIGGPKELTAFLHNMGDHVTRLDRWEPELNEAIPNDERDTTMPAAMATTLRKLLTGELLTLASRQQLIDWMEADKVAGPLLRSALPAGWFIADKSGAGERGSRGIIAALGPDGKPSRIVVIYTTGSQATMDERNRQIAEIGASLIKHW

Regarding `COc1ccc(-c2nnc3oc(O)c(CCO)c(C)c2-3)cc1`, the figures for the IC50 in experiment [1], in experiment [2] and in experiment [3] were > 100 µM (not active), > 100 µM (inactive) and > 100 µM (inactive), respectively.

For `COc1cc(/C=N/NC(=O)c2ccccc2)ccc1OCC(=O)Nc1ccc([N+](=O)[O-])cc1`, the IC50 is 2.74 µM (active) in experiment [4] and 49.5 µM (active) in experiment [5].

For the molecule `CCCC(=O)NC1=C(Cl)C(=O)c2ccccc2C1=O`, the IC50 was 3.93 µM (active) at Hexokinase HKDC1; 0.891 µM (active) in the experiment on CHO; 6.78 µM (active) at Beta Lactamase; 14.5 µM (active) at Genome polyprotein; > 66 µM (inactive) in experiment [7]; > 66 µM (inactive) in [8]. The IC50 at Fatty acid synthase [9] is 37.7 µM (inactive); at Fatty acid synthase [10], 12.7 µM (active); in [11], 11.8 µM (inactive). Further, the results for the AC50 (in experiment [6]; on Paired box protein Pax-8; in experiment [12]) were < 0.195 µM (active), 2.54 µM (active) and 28.3 µM (active), respectively. Further, the results for the CC50 (in the experiment on Vero; in [13]) were 27.4 µM (active) and 3.81 µM (active), respectively.

For `Cc1cc(C)c(C#N)c(SCC(=O)c2ccc(O)c(O)c2)n1`, the IC50 is 1.56 µM (active) in [2] and 6.71 µM (active) in experiment [3].

With `CCCN1CCN(C(=O)C2CCN(c3ncnc4c3nc3n4CCCCC3)CC2)CC1`, the IC50 on Bcl-2-related protein A1 was > 20 µM (inactive); in experiment [14] it was 14.2 µM (active); in [15], 6.38 µM (active).

As to `CC(/C=C/c1ccccc1)=N/NC(=O)c1cccc(Br)c1`, the EC50 is 3.65 µM (active) in the experiment on HEK293 [16] and > 20 µM (inactive) in experiment [19]. For the same molecule, the IC50 with HEK293 [17] is > 20 µM (inactive); with HEK293 [18] it was > 20 µM (inactive); in the experiment with HEK293 [20], 2.7 µM (active); in the experiment with HEK293 [21], > 20 µM (inactive); on Beta-galactosidase it was > 66.6 µM (inactive).

The record behind these values is ChEMBL document CHEMBL1201862, “PubChem BioAssay data set” (2004).
